The source of these data is ChEMBL document CHEMBL4339233, “Structure-activity relationship study of antitrypanosomal chalcone derivatives using multivariate analysis” (Bioorg Med Chem Lett, 2019).

pEC50: −log10 of the molar value.

One may read the pEC50 as the EC50 on a negative log10 scale, so that one unit is a factor of ten. In general, CC50 refers to the concentration giving 50% cytotoxicity.

For one data set, the system named is Trypanosoma cruzi. The data set can be described thus: Antitrypanosomal activity against Trypanosoma cruzi Y trypomastigotes infected in LLC-MK2-ATCC CCL7 cells assessed as reduction in parasite growth incubated for 24 hrs by Alamar blue dye based assay. The data set is classed as functional, organism-based. (Alamar Blue is a resazurin reagent that responds to reducing activity.)

Data set [1] can be described thus: Cytotoxicity in mouse NCTC-929 cells assessed as reduction in cell viability incubated for 48 hrs by MTT assay. Particulars: NCTC-929 (L929) cells. The data set is classed as cell-based. Background: Tetrazolium dyes change colour on reduction, which living cells bring about.
The nature of data set [2]: Selectivity index, ratio of CC50 for cytotoxicity in mouse NCTC-929 cells to EC50 for Antitrypanosomal activity against Trypanosoma cruzi trypomastigotes infected in LLC-MK2-ATCC CCL7 cells. The data set is classed as toxicity, cell-based. Particulars: read-out: Ratio CC50/EC50.

Consider `CN(C)c1ccc(/C=C/C(=O)c2ccc([N+](=O)[O-])cc2)cc1`, for which the pEC50 in the data set on Trypanosoma cruzi is under 4.00. The CC50 at 48 h in data set [1] was over 200 µM.
`O=C(/C=C/c1ccc2c(c1)OCO2)c1cccc(O)c1`: in the data set on Trypanosoma cruzi, the pEC50 was 4.58. For the same compound, the CC50 at 48 h in data set [1] was found to be 24.5 µM. In data set [2], the selectivity ratio turned out to be 1.
With `CN(C)c1ccc(CCC(O)c2cccc(O)c2)cc1` (racemic), the pEC50 in the data set with Trypanosoma cruzi was under 4.00. Besides, the CC50 at 48 h in data set [1] was over 200 µM.
`O=C(/C=C/c1ccccc1)c1ccc([N+](=O)[O-])cc1`: in the data set on Trypanosoma cruzi, the pEC50 is 4.86. Further, the CC50 at 48 h in data set [1] was 127 µM. Further, the selectivity ratio in data set [2] came to 9.1.
As for `O=C(/C=C/c1ccccc1)c1ccccc1` [CHALCONE], the pEC50 in the data set with Trypanosoma cruzi is 4.57. Besides, the CC50 at 48 h in data set [1] was 89.3 µM. For the same compound, the selectivity ratio in data set [2] stood at 3.3.
In the case of `O=C(/C=C/c1ccc2c(c1)OCO2)c1ccccc1O`, the pEC50 in the data set on Trypanosoma cruzi is under 4.00. Also, in data set [1], the CC50 at 48 h turned out to be 140 µM.
On the same counts, the results for `O=C(/C=C/c1ccc2c(c1)OCO2)c1ccc([N+](=O)[O-])cc1` are under 4.00 and over 200 µM.
For `CN(C)c1ccc(/C=C/C(=O)c2cccc(N)c2)cc1` the same measures were under 4.00 and 101 µM.
For `COc1ccc(C(=O)/C=C/c2ccc([N+](=O)[O-])cc2)cc1`, the pEC50 with Trypanosoma cruzi was under 4.00. Also, the CC50 at 48 h in data set [1] was over 200 µM.
As for `C=CCOc1ccccc1C(=O)/C=C/c1ccccc1`, the pEC50 with Trypanosoma cruzi is 4.97. The CC50 at 48 h in data set [1] was determined as 77.6 µM. Moreover, the selectivity ratio in data set [2] came out at 7.3.
For `COc1ccc(C(=O)/C=C/c2ccc(N(C)C)cc2)cc1`, in the data set with Trypanosoma cruzi, the pEC50 was under 4.00. In addition, in data set [1], the CC50 at 48 h was over 200 µM.
As for `O=[N+]([O-])c1ccc(C(O)CCc2ccccc2)cc1` (racemic), in the data set on Trypanosoma cruzi, the pEC50 was under 4.00. Moreover, in data set [1], the CC50 at 48 h was over 200 µM.
Take `O=C(CCc1ccc2c(c1)OCO2)c1ccc(Cl)cc1`: the pEC50 with Trypanosoma cruzi was under 4.00. Moreover, the CC50 at 48 h in data set [1] was over 200 µM.
As to `O=C(/C=C/c1ccccc1)c1ccc(-c2ccccc2)cc1`, the negative logarithm of the EC50 (pEC50) in the data set with Trypanosoma cruzi is under 4.00. The CC50 at 48 h in data set [1] was over 200 µM.
Turning to `COc1cc(/C=C/C(=O)c2ccccc2)cc(OC)c1OC`, the pEC50 with Trypanosoma cruzi was 4.74. Also, in data set [1], the CC50 at 48 h was 27.3 µM. Also, the selectivity ratio in data set [2] came to 1.5.
For `CN(C)c1ccc(/C=C/C(=O)c2ccccc2O)cc1`, in the data set with Trypanosoma cruzi, the pEC50 is under 4.00. For the same compound, the CC50 at 48 h in data set [1] is 50.4 µM.
As for `CN(C)c1ccc(/C=C/C(=O)c2cccc(O)c2)cc1`, the pEC50 in the data set on Trypanosoma cruzi is 4.54. Besides, the CC50 at 48 h in data set [1] is over 200 µM. For the same compound, the selectivity ratio in data set [2] is over 7.
Turning to `CN(C)c1ccc(/C=C/C(=O)c2ccccc2)cc1`, in the data set with Trypanosoma cruzi, the pEC50 was 4.14. For the same compound, the CC50 at 48 h in data set [1] was determined as 117 µM. Moreover, the selectivity ratio in data set [2] was determined as 1.6.
Turning to `COc1ccc(C(=O)/C=C/c2ccccc2)cc1` [4'-METHOXYCHALCONE], the pEC50 with Trypanosoma cruzi was under 4.00. Moreover, the CC50 at 48 h in data set [1] worked out at 50.4 µM.
Take `CN(C)c1ccc(CCC(=O)c2cccc(O)c2)cc1`: the pEC50 with Trypanosoma cruzi is under 4.00. For the same compound, the CC50 at 48 h in data set [1] is over 200 µM.
With `COc1ccc(C(=O)/C=C/c2ccc3c(c2)OCO3)cc1`, the pEC50 in the data set with Trypanosoma cruzi was under 4.00. The CC50 at 48 h in data set [1] was over 200 µM.
As for `CN(C)c1ccc(/C=C/C(=O)c2ccc(Cl)cc2)cc1`, the pEC50 in the data set with Trypanosoma cruzi is under 4.00. The CC50 at 48 h in data set [1] was over 200 µM.
As to `O=C(CCc1ccccc1)c1ccc([N+](=O)[O-])cc1`, the pEC50 with Trypanosoma cruzi was under 4.00. Moreover, in data set [1], the CC50 at 48 h was over 200 µM.
Take `COc1cc(/C=C/C(=O)c2ccc(-c3ccccc3)cc2)cc(OC)c1OC`: the pEC50 in the data set with Trypanosoma cruzi is 5.48. The CC50 at 48 h in data set [1] is 29 µM. Also, the selectivity ratio in data set [2] amounted to 8.9.
For `OC(CCc1ccc2c(c1)OCO2)c1ccc(Cl)cc1` (racemic), in the data set with Trypanosoma cruzi, the pEC50 was under 4.00. In data set [1], the CC50 at 48 h is over 200 µM.
For `Oc1ccccc1C(O)CCc1ccccc1` (racemic) the same measures were under 4.00 and over 200 µM.
For `COc1ccc(C(=O)/C=C/c2ccc(Cl)cc2)cc1`, the pEC50 in the data set on Trypanosoma cruzi is under 4.00. Moreover, the CC50 at 48 h in data set [1] stood at 120 µM.
Consider `COc1cc(CCC(O)c2ccc(-c3ccccc3)cc2)cc(OC)c1OC` (racemic), for which the pEC50 with Trypanosoma cruzi was 4.55. Moreover, the CC50 at 48 h in data set [1] came to 95.6 µM. For the same compound, the selectivity ratio in data set [2] was 3.4.
Turning to `O=C(/C=C/c1ccc2c(c1)OCO2)c1ccc(Cl)cc1`, the pEC50 with Trypanosoma cruzi was 4.22. Moreover, the CC50 at 48 h in data set [1] is over 200 µM.
On the same counts, the results for `COc1cc(CCC(=O)c2ccc(-c3ccccc3)cc2)cc(OC)c1OC` are under 4.00 and over 200 µM.
Take `O=C(/C=C/c1ccc2c(c1)OCO2)c1ccccc1`: the pEC50 in the data set with Trypanosoma cruzi was 4.22. For the same compound, in data set [1], the CC50 at 48 h came out at 100 µM. Moreover, in data set [2], the selectivity ratio came to 1.6.
As for `CN(C)c1ccc(/C=C/C(=O)c2ccc(-c3ccccc3)cc2)cc1`, in the data set with Trypanosoma cruzi, the pEC50 is under 4.00. Also, the CC50 at 48 h in data set [1] is over 200 µM.
As for `C=CCOc1ccccc1C(=O)/C=C/c1ccc2c(c1)OCO2`, in the data set on Trypanosoma cruzi, the pEC50 is 4.72. The CC50 at 48 h in data set [1] turned out to be 82.3 µM. Also, the selectivity ratio in data set [2] amounted to 4.3.
`O=C(Cn1ccnc1[N+](=O)[O-])NCc1ccccc1` [BENZNIDAZOLE]: the pEC50 in the data set on Trypanosoma cruzi is 4.78. Moreover, the CC50 at 48 h in data set [1] is over 200 µM.
Take `O=C(/C=C/c1ccccc1)c1cccc(O)c1`: the pEC50 in the data set with Trypanosoma cruzi is 4.59. Besides, in data set [1], the CC50 at 48 h turned out to be 29.9 µM. In addition, in data set [2], the selectivity ratio worked out at 1.1.
As for `O=C(/C=C/c1ccccc1)c1ccccc1O` [2'-HYDROXYCHALCONE], the pEC50 with Trypanosoma cruzi was 4.54. Besides, in data set [1], the CC50 at 48 h turned out to be 79.5 µM. The selectivity ratio in data set [2] came to 2.8.
